In the Kinase Knowledgebase extract (Sharma et al. 2016):
Several values for one entry are separate records, joined by “and”; a condition that tells them apart may be missing. Equal values may be shown once.

Key:
PIK3CD (Human) [1] = biological target: PIK3CD (Human) (UniProt O00329); experiment: Inhibition of PIK3CD Kinase Activity in Pfeiffer Cells
PIK3CD (Human) [2] = biological target: PIK3CD (Human) (UniProt O00329); experiment: Inhibition of PIK3CD Kinase Activity (Scintillation Proximity Assay)
PIK3CD (Human) [3] = biological target: PIK3CD (Human) (UniProt O00329); experiment: Inhibition of PIK3CD Kinase Activity (AlphaScreen Assay)
PIK3CD (Human) [4] = biological target: PIK3CD (Human) (UniProt O00329); experiment: Inhibition of PIK3CD Kinase Activity

Sequence of PIK3CD (Human) (O00329 whole entry, looked up): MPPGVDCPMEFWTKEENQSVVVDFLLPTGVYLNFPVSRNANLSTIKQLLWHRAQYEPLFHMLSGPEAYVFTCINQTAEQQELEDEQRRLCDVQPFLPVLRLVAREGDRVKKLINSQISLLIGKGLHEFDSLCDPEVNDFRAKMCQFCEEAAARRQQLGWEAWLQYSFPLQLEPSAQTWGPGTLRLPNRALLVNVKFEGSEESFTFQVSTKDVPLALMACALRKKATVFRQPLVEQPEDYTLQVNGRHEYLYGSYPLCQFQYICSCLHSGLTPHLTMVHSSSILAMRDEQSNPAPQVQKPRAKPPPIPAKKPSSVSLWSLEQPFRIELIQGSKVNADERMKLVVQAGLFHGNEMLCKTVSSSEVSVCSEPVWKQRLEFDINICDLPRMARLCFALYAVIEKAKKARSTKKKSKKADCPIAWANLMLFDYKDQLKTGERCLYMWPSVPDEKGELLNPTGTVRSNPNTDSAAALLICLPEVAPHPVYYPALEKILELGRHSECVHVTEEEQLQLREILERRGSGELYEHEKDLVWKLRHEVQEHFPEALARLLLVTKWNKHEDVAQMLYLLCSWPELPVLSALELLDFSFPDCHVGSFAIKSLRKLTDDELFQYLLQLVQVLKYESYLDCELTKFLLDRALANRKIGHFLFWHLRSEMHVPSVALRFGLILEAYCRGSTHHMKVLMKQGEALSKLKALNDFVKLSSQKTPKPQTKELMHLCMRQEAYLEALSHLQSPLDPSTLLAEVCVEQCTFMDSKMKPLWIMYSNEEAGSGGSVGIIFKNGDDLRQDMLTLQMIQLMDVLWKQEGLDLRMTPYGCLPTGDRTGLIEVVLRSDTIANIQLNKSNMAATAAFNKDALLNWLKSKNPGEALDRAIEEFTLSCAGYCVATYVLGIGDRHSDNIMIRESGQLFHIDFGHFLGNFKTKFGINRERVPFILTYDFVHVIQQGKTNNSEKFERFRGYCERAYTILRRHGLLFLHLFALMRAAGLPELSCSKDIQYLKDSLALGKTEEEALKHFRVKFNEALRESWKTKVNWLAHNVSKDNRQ

IC50 (PIK3CD (Human) [1]) | IC50 (PIK3CD (Human) [2]) | SMILES | other results
500 to 1000 nM | – | Cc1cccc2nc(C(C)Nc3nc(N)nc4[nH]cnc34)c(-c3ccc(C#N)cc3)c(=O)n12 (configuration not stated) | –
– | < 50 nM | Cc1cccc2nc(C(C)Nc3nc(N)nc4[nH]cnc34)c(-c3cccc(F)c3)c(=O)n12 (configuration not stated) | –
50 to 100 nM | – | Cc1csc2nc(C(C)Nc3ncnc4[nH]cnc34)c(-c3cscn3)c(=O)n12 (configuration not stated) | –
– | – | CCC(Nc1ncnc2[nH]cnc12)c1nc2cccc(C)n2c(=O)c1-c1cccnc1F (configuration not stated) | IC50 (PIK3CD (Human) [3]): 100 to 500 nM
50 to 100 nM | – | Cc1cccc2nc(C(C)Nc3ncnc4[nH]cnc34)c(-c3ccccc3)c(=O)n12 (configuration not stated) | –
50 to 100 nM | – | Cc1cccc2nc(C(C)Nc3nc(N)nc4[nH]cnc34)c(-c3cccc(Cl)c3)c(=O)n12 (configuration not stated) | –
50 to 100 nM | – | Cc1cccc2nc(C(C)Nc3ncnc4[nH]cnc34)c(-c3cc(F)cc(F)c3)c(=O)n12 (configuration not stated) | –
50 to 100 nM | – | Cc1csc2nc(C(C)Nc3nc(F)nc4[nH]cnc34)c(-c3cc(F)cc(F)c3)c(=O)n12 (configuration not stated) | –
< 50 nM | – | Cc1csc2nc(C(C)Nc3nc(N)nc4[nH]cnc34)c(-c3cc(F)cc(Cl)c3)c(=O)n12 (configuration not stated) | –
100 to 500 nM | – | CCc1cccc2nc(C(C)Nc3ncnc4[nH]cnc34)c(-c3ccc(F)cc3)c(=O)n12 (configuration not stated) | –
100 to 500 nM | – | Cc1csc2nc(C(C)Nc3ncnc4[nH]cnc34)c(-c3ccc(F)cc3)c(=O)n12 (configuration not stated) | –
– | 100 to 500 nM | Cc1csc2nc(C(C)Nc3ncnc4[nH]ccc34)c(-c3cc(F)cc(F)c3)c(=O)n12 (configuration not stated) | –
100 to 500 nM | – | Cc1cccc2nc(C(C)Nc3nc(N)nc4[nH]cnc34)c(-c3cccc(C#N)c3)c(=O)n12 (configuration not stated) | –
– | < 50 nM | Cc1cccc2nc(C(C)Nc3ncnc4[nH]cnc34)c(-c3cccc(F)c3)c(=O)n12 (configuration not stated) | –
– | – | Cc1csc2nc(C(C)Nc3ncnc4[nH]cnc34)c(-c3ccccn3)c(=O)n12 (configuration not stated) | IC50 (PIK3CD (Human) [3]): 50 to 100 nM
< 50 nM and 100 to 500 nM | 100 to 500 nM and < 50 nM | Cc1csc2nc(C(C)Nc3nc(N)nc4[nH]cnc34)c(-c3ccccc3Cl)c(=O)n12 (configuration not stated) | –
50 to 100 nM | – | Cc1csc2nc(C(C)Nc3ncnc4[nH]cnc34)c(-c3cc(F)cc(Cl)c3)c(=O)n12 (configuration not stated) | –
50 to 100 nM | – | Cc1ccc(-c2c(C(C)Nc3ncnc4[nH]cnc34)nc3cccc(C)n3c2=O)cc1 (configuration not stated) | –
– | 100 to 500 nM | CC(Nc1nc(N)nc2[nH]cnc12)c1nc2ccccn2c(=O)c1-c1cc(F)cc(F)c1 (configuration not stated) | –
< 50 nM | – | Cc1csc2nc(C(C)Nc3nc(N)nc4[nH]cnc34)c(-c3cccc(Cl)c3)c(=O)n12 (configuration not stated) | –

IC50 (PIK3CD (Human) [1]) | IC50 (PIK3CD (Human) [2]) | SMILES | other results
100 to 500 nM and < 50 nM | 100 to 500 nM and < 50 nM | Cc1csc2nc(C(C)Nc3ncnc4[nH]cnc34)c(-c3ccccc3Cl)c(=O)n12 (configuration not stated) | –
– | 50 to 100 nM | Cc1csc2nc(C(C)Nc3ncnc4[nH]cnc34)c(-c3cccc(F)c3F)c(=O)n12 (configuration not stated) | –
– | – | Cc1csc2nc(C(C)Nc3nc(N)nc4[nH]cnc34)c(-c3ccccc3)c(=O)n12 (configuration not stated) | IC50 (PIK3CD (Human) [3]): < 50 nM
– | < 50 nM | Cc1csc2nc(C(C)Nc3nc(N)nc4[nH]cnc34)c(-c3ccccc3F)c(=O)n12 (configuration not stated) | –
– | 100 to 500 nM | Cc1ccc(-c2c(C(C)Nc3ncnc4[nH]cnc34)nc3scc(C)n3c2=O)cc1 (configuration not stated) | –
100 to 500 nM | – | CCC(Nc1ncnc2[nH]cnc12)c1nc2cccc(C)n2c(=O)c1-c1cccc(F)c1 (configuration not stated) | –
50 to 100 nM | – | Cc1csc2nc(C(C)Nc3ncnc4[nH]cnc34)c(-c3cccc(Cl)c3)c(=O)n12 (configuration not stated) | –
500 to 1000 nM | – | CCC(Nc1ncnc2[nH]cnc12)c1nc2cccc(C)n2c(=O)c1-c1cn[nH]c1 (configuration not stated) | –
< 50 nM | – | CCc1cccc2nc(C(C)Nc3nc(N)nc4[nH]cnc34)c(-c3cc(F)cc(F)c3)c(=O)n12 (configuration not stated) | –
100 to 500 nM | – | Cc1cccc2nc(C(C)Nc3ncnc4[nH]cnc34)c(-c3cccc(F)c3F)c(=O)n12 (configuration not stated) | –
– | 100 to 500 nM | CCc1cccc2nc(C(C)Nc3ncnc4[nH]cnc34)c(-c3cc(F)cc(F)c3)c(=O)n12 (configuration not stated) | –
100 to 500 nM | < 50 nM | Cc1csc2nc(C(C)Nc3ncnc4[nH]cnc34)c(-c3cc(F)cc(F)c3)c(=O)n12 (configuration not stated) | IC50 (PIK3CD (Human) [4]): < 50 nM; IC50 (PIK3CD (Human) [3]): < 50 nM
– | < 50 nM | CCC(Nc1ncnc2[nH]cnc12)c1nc2cccc(C)n2c(=O)c1-c1ccccc1 (configuration not stated) | –
500 to 1000 nM | – | Cc1cccc2nc(C(C)Nc3ncnc4[nH]cnc34)c(-c3ccc(F)c(F)c3)c(=O)n12 (configuration not stated) | –
– | 50 to 100 nM | CC(Nc1ncnc2[nH]cnc12)c1nc2scc(C(F)(F)F)n2c(=O)c1-c1cccc(F)c1 (configuration not stated) | –
50 to 100 nM | – | Cc1cccc2nc(C(C)Nc3ncnc4[nH]cnc34)c(-c3cccc(Cl)c3)c(=O)n12 (configuration not stated) | –
– | < 50 nM | Cc1cccc2nc(C(C)Nc3nc(N)nc4[nH]cnc34)c(-c3ccccc3Cl)c(=O)n12 (configuration not stated) | –
– | < 50 nM | Cc1csc2nc(C(C)Nc3nc(N)nc4[nH]cnc34)c(-c3cccc(F)c3F)c(=O)n12 (configuration not stated) | –
– | 50 to 100 nM | CCC(Nc1ncnc2[nH]cnc12)c1nc2cccc(C)n2c(=O)c1-c1cc(F)cc(F)c1 (configuration not stated) | –
50 to 100 nM | – | Cc1csc2nc(C(C)Nc3ncnc4[nH]cnc34)c(-c3ccccc3F)c(=O)n12 (configuration not stated) | –

IC50 (PIK3CD (Human) [1]) | IC50 (PIK3CD (Human) [2]) | SMILES | other results
50 to 100 nM | – | Cc1csc2nc(C(C)Nc3ncnc4[nH]cnc34)c(-c3nccs3)c(=O)n12 (configuration not stated) | –
– | < 50 nM | Cc1csc2nc(C(C)Nc3ncnc4[nH]cnc34)c(-c3ccccc3)c(=O)n12 (configuration not stated) | –
< 50 nM | < 50 nM | Cc1csc2nc(C(C)Nc3nc(N)nc4[nH]cnc34)c(-c3cc(F)cc(F)c3)c(=O)n12 (configuration not stated) | IC50 (PIK3CD (Human) [3]): < 50 nM
50 to 100 nM | – | COc1cccc(-c2c(C(C)Nc3ncnc4[nH]cnc34)nc3cccc(C)n3c2=O)c1 (configuration not stated) | –
– | 100 to 500 nM | Cc1csc2nc(C(C)Nc3ncnc4[nH]cnc34)c(-c3cncc(F)c3)c(=O)n12 (configuration not stated) | –
50 to 100 nM | – | Cc1cccc2nc(C(C)Nc3ncnc4[nH]cnc34)c(-c3cc(F)ccc3F)c(=O)n12 (configuration not stated) | –
– | – | Cc1cccc2nc(C(C)n3cnc4c(N)ncnc43)c(-c3ccccc3)c(=O)n12 (configuration not stated) | IC50 (PIK3CD (Human) [3]): 100 to 500 nM
50 to 100 nM | – | Cc1cccc2nc(C(C)Nc3nc(N)nc4[nH]cnc34)c(-c3ccccc3F)c(=O)n12 (configuration not stated) | –
– | 100 to 500 nM | Cc1cccc(-c2c(C(C)Nc3ncnc4[nH]cnc34)nc3cccc(C)n3c2=O)c1 (configuration not stated) | –
– | 50 to 100 nM | Cc1csc2nc(C(C)Nc3nc(N)nc4[nH]cnc34)c(-c3cncc(F)c3)c(=O)n12 (configuration not stated) | –
– | 100 to 500 nM | Cc1cccc2nc(C(C)Nc3ncnc4[nH]cnc34)c(-c3cccc(C#N)c3)c(=O)n12 (configuration not stated) | –
– | 100 to 500 nM | CC(Nc1nc(N)nc2[nH]cnc12)c1nc2sccn2c(=O)c1-c1ccccc1 (configuration not stated) | –
50 to 100 nM | – | Cc1cccc2nc(C(C)Nc3ncnc4[nH]cnc34)c(-c3ccccc3Cl)c(=O)n12 (configuration not stated) | –
– | – | CCC(Nc1ncnc2[nH]cnc12)c1nc2cccc(C)n2c(=O)c1-c1cncc(F)c1 (configuration not stated) | IC50 (PIK3CD (Human) [3]): 100 to 500 nM
– | – | Cc1csc2nc(C(C)Nc3nc(N)nc4[nH]cnc34)c(-c3cccc(F)c3)c(=O)n12 (configuration not stated) | IC50 (PIK3CD (Human) [3]): < 50 nM
50 to 100 nM | – | Cc1cccc(-c2c(C(C)Nc3nc(N)nc4[nH]cnc34)nc3cccc(C)n3c2=O)c1 (configuration not stated) | –
– | 100 to 500 nM | Cc1ccccc1-c1c(C(C)Nc2ncnc3[nH]cnc23)nc2cccc(C)n2c1=O (configuration not stated) | –
100 to 500 nM | – | Cc1cccc2nc(C(C)Nc3ncnc4[nH]cnc34)c(-c3ccccc3F)c(=O)n12 (configuration not stated) | –
50 to 100 nM | – | Cc1csc2nc(C(C)Nc3ncnc4[nH]cnc34)c(-c3cc(F)ccc3F)c(=O)n12 (configuration not stated) | –
– | < 50 nM | Cc1cccc2nc(C(C)Nc3nc(N)nc4[nH]cnc34)c(-c3ccccc3)c(=O)n12 (configuration not stated) | –
